Results reported in PMC5218480 (PLoS ONE, 2017).

System: MV-4-11 cells
Assay: Gene expression microarray analysis (Affymetrix PrimeView) and GSEA
Type: cell-based, human
Parameters: RFU PODN (11730768_x_at) / Fold change /veh PODN (11730768_x_at) / RFU LINC00158 (11744669_a_at) / Fold change /veh LINC00158 (11744669_a_at) / RFU DUSP10 (11751237_a_at) / Fold change /veh DUSP10 (11751237_a_at) / RFU ID3 (11757404_x_at) / Fold change /veh ID3 (11757404_x_at) / RFU PLEKHG5 (11737974_s_at) / Fold change /veh PLEKHG5 (11737974_s_at) / RFU LRRC4B (11730491_at) / Fold change /veh LRRC4B (11730491_at) / RFU GIMAP4 (11747438_a_at) / Fold change /veh GIMAP4 (11747438_a_at) / RFU KRT8 (11758183_x_at) / Fold change /veh KRT8 (11758183_x_at) / RFU CNN1 (11734310_a_at) / Fold change /veh CNN1 (11734310_a_at) / RFU VPS37D (11726825_at) / Fold change /veh VPS37D (11726825_at) / RFU C10orf10 (11716522_x_at) / Fold change /veh C10orf10 (11716522_x_at) / RFU KIR2DL2 /// KIR2DL4 /// KIR2DL5A /// KIR2DL5B /// KIR2DS1 /// KIR2DS2 /// KIR2DS3 /// KIR2DS4 /// KIR3DL3 /// KIR3DL3 /// KIR3DS1 (11738374_at) / Fold change /veh KIR2DL2 /// KIR2DL4 /// KIR2DL5A /// KIR2DL5B /// KIR2DS1 /// KIR2DS2 /// KIR2DS3 /// KIR2DS4 /// KIR3DL3 /// KIR3DL3 /// KIR3DS1 (11738374_at) / RFU C1QL1 (11718748_at) / Fold change /veh C1QL1 (11718748_at) / RFU TMPRSS4 (11747572_a_at) / Fold change /veh TMPRSS4 (11747572_a_at) / RFU HAMP (11756126_x_at) / Fold change /veh HAMP (11756126_x_at) / RFU RNFT2 (11725882_a_at) / Fold change /veh RNFT2 (11725882_a_at) / RFU NR4A2 (11747474_a_at) / Fold change /veh NR4A2 (11747474_a_at) / RFU ABCC12 (11746883_a_at) / Fold change /veh ABCC12 (11746883_a_at) / RFU TMEM136 (11760407_x_at) / Fold change /veh TMEM136 (11760407_x_at) / RFU CLDN22 /// WWC2 (11732394_at) / Fold change /veh CLDN22 /// WWC2 (11732394_at) / RFU HLA-DPB1 (11760878_x_at) / Fold change /veh HLA-DPB1 (11760878_x_at) / RFU SPINT1 (11716480_a_at) / Fold change /veh SPINT1 (11716480_a_at) / RFU GAP43 (11754022_s_at) / Fold change /veh GAP43 (11754022_s_at) / RFU A4GNT (11735810_at) / Fold change /veh A4GNT (11735810_at) / RFU PRB3 (11715151_x_at) / Fold change /veh PRB3 (11715151_x_at) / RFU TUBB4B (11761932_at) / Fold change /veh TUBB4B (11761932_at) / RFU CAPN14 (11732068_a_at) / Fold change /veh CAPN14 (11732068_a_at) / RFU TMCC2 (11721928_a_at) / Fold change /veh TMCC2 (11721928_a_at) / RFU IRGQ (11745062_a_at) / Fold change /veh IRGQ (11745062_a_at) / RFU FAM174B (11720279_a_at) / Fold change /veh FAM174B (11720279_a_at) / RFU TMPRSS4 (11748680_a_at) / Fold change /veh TMPRSS4 (11748680_a_at) / RFU FAM212B (11763350_a_at) / Fold change /veh FAM212B (11763350_a_at) / RFU PLEKHG5 (11743358_a_at) / Fold change /veh PLEKHG5 (11743358_a_at) / RFU ZSCAN30 (11745921_a_at) / Fold change /veh ZSCAN30 (11745921_a_at) / RFU CMKLR1 (11741424_a_at) / Fold change /veh CMKLR1 (11741424_a_at) / RFU LOC101060620 /// MAPK8IP1 (11723275_at) / Fold change /veh LOC101060620 /// MAPK8IP1 (11723275_at) / RFU SPTSSB (11747773_x_at) / Fold change /veh SPTSSB (11747773_x_at) / RFU PRSS12 (11739890_at) / Fold change /veh PRSS12 (11739890_at) / RFU BIN1 (11741810_x_at) / Fold change /veh BIN1 (11741810_x_at) / RFU WNT11 (11732464_a_at) / Fold change /veh WNT11 (11732464_a_at) / RFU C10orf10 (11716521_a_at) / Fold change /veh C10orf10 (11716521_a_at) / RFU C5orf56 (11738089_at) / Fold change /veh C5orf56 (11738089_at) / RFU CYB561 (11721691_x_at) / Fold change /veh CYB561 (11721691_x_at) / RFU ANKRD19P (11752326_a_at) / Fold change /veh ANKRD19P (11752326_a_at) / RFU OR2T12 /// OR2T33 /// OR2T8 (11738714_s_at) / Fold change /veh OR2T12 /// OR2T33 /// OR2T8 (11738714_s_at) / RFU VCAN (11748164_a_at) / Fold change /veh VCAN (11748164_a_at) / RFU JSRP1 (11732532_at) / Fold change /veh JSRP1 (11732532_at) / RFU KRTAP10-11 (11738290_x_at) / Fold change /veh KRTAP10-11 (11738290_x_at) / RFU MYO3A (11730013_a_at) / Fold change /veh MYO3A (11730013_a_at) / RFU EBF3 (11725865_a_at) / Fold change /veh EBF3 (11725865_a_at) / RFU CAMK2N1 (11719241_x_at) / Fold change /veh CAMK2N1 (11719241_x_at) / RFU C5orf56 (11738088_a_at) / Fold change /veh C5orf56 (11738088_a_at) / RFU OLFML3 (11715873_a_at) / Fold change /veh OLFML3 (11715873_a_at) / RFU LOC100653217 /// NTM (11731650_a_at) / Fold change /veh LOC100653217 /// NTM (11731650_a_at) / RFU MAPK11 (11762145_a_at) / Fold change /veh MAPK11 (11762145_a_at) / RFU FIZ1 (11724087_x_at) / Fold change /veh FIZ1 (11724087_x_at) / RFU OASL (11726364_x_at) / Fold change /veh OASL (11726364_x_at) / RFU SOX15 (11748057_x_at) / Fold change /veh SOX15 (11748057_x_at) / RFU CD79A (11719716_a_at) / Fold change /veh CD79A (11719716_a_at) / RFU HIST1H1D (11736915_at) / Fold change /veh HIST1H1D (11736915_at) / RFU CASKIN2 (11723855_a_at) / Fold change /veh CASKIN2 (11723855_a_at) / RFU LOC730098 (11760151_x_at) / Fold change /veh LOC730098 (11760151_x_at) / RFU OR4N2 (11742367_at) / Fold change /veh OR4N2 (11742367_at) / RFU PRRT2 (11749266_a_at) / Fold change /veh PRRT2 (11749266_a_at) / RFU SNX32 (11753110_a_at) / Fold change /veh SNX32 (11753110_a_at) / RFU CDHR5 (11726645_a_at) / Fold change /veh CDHR5 (11726645_a_at) / RFU RCAN1 (11760418_a_at) / Fold change /veh RCAN1 (11760418_a_at) / RFU FAM167A (11723789_a_at) / Fold change /veh FAM167A (11723789_a_at) / RFU FAM26E (11764081_at) / Fold change /veh FAM26E (11764081_at) / RFU ISYNA1 (11749810_s_at) / Fold change /veh ISYNA1 (11749810_s_at) / RFU ACY1 (11761880_at) / Fold change /veh ACY1 (11761880_at) / RFU 11764098_at / Fold change /veh 11764098_at / RFU SAMD14 (11745864_x_at) / Fold change /veh SAMD14 (11745864_x_at) / RFU NPB (11741838_a_at) / Fold change /veh NPB (11741838_a_at) / RFU TMPRSS6 (11731388_a_at) / Fold change /veh TMPRSS6 (11731388_a_at) / RFU KRTAP10-2 (11738614_at) / Fold change /veh KRTAP10-2 (11738614_at) / RFU ARHGAP8 /// PRR5-ARHGAP8 (11727945_x_at) / Fold change /veh ARHGAP8 /// PRR5-ARHGAP8 (11727945_x_at) / RFU KRTAP5-7 /// NADSYN1 (11734609_at) / Fold change /veh KRTAP5-7 /// NADSYN1 (11734609_at) / RFU RASL12 (11751679_a_at) / Fold change /veh RASL12 (11751679_a_at) / RFU CDKN2B (11736163_a_at) / Fold change /veh CDKN2B (11736163_a_at) / RFU PRF1 (11729649_at) / Fold change /veh PRF1 (11729649_at) / RFU, ZNF638 /// ZNF638-IT1 / Fold change vs veh, ZNF638 /// ZNF638-IT1 / RFU, PANK3 / Fold change vs veh, PANK3 / RFU, SH3YL1 / Fold change vs veh, SH3YL1 / RFU, ZEB2 / Fold change vs veh, ZEB2 / RFU, NRIP1 / Fold change vs veh, NRIP1 / RFU, PTTG1IP / Fold change vs veh, PTTG1IP / RFU, CAPN2 / Fold change vs veh, CAPN2 / RFU, MED14 / Fold change vs veh, MED14 / RFU, SNORA58 / Fold change vs veh, SNORA58 / RFU, C1orf63 / Fold change vs veh, C1orf63 / RFU, LRRFIP1 / Fold change vs veh, LRRFIP1 / RFU, NDUFAF7 / Fold change vs veh, NDUFAF7 / RFU, SLC12A2 / Fold change vs veh, SLC12A2 / RFU, IBTK / Fold change vs veh, IBTK / RFU, ESF1 / Fold change vs veh, ESF1 / Fold change vs veh, TMEM50B / RFU, TAOK1 / Fold change vs veh, TAOK1 / RFU, ACBD3 / Fold change vs veh, ACBD3 / RFU, TMA16 / Fold change vs veh, TMA16 / RFU, RWDD3 / Fold change vs veh, RWDD3 / RFU, BCAT1 / Fold change vs veh, BCAT1 / RFU, EDEM3 / Fold change vs veh, EDEM3 / RFU, TMEM33 / Fold change vs veh, TMEM33 / RFU, WDR75 / Fold change vs veh, WDR75 / RFU, AHCTF1 / Fold change vs veh, AHCTF1 / RFU, TFRC / Fold change vs veh, TFRC / RFU, ZDHHC17 / Fold change vs veh, ZDHHC17 / RFU, NOM1 / Fold change vs veh, NOM1 / RFU, ARL8B / Fold change vs veh, ARL8B / RFU, ZBTB11 / Fold change vs veh, ZBTB11 / RFU, TAMM41 / Fold change vs veh, TAMM41 / RFU, KIAA1704 /// LOC100996395 / Fold change vs veh, KIAA1704 /// LOC100996395 / RFU, ING1 / Fold change vs veh, ING1 / RFU, TRMT61B / Fold change vs veh, TRMT61B / RFU, FUBP3 / Fold change vs veh, FUBP3 / RFU, TP53 / Fold change vs veh, TP53 / RFU, TNKS2 / Fold change vs veh, TNKS2 / RFU, ZFP14 / Fold change vs veh, ZFP14 / RFU, ACTR2 / Fold change vs veh, ACTR2 / RFU, PPP3R1 / Fold change vs veh, PPP3R1 / RFU, PIK3R1 / Fold change vs veh, PIK3R1 / RFU, HNRNPA1 / Fold change vs veh, HNRNPA1 / RFU, RNF170 / Fold change vs veh, RNF170 / RFU, ZNF28 / Fold change vs veh, ZNF28 / RFU, RNGTT / Fold change vs veh, RNGTT / RFU, OGT / Fold change vs veh, OGT / RFU, BRD1 / Fold change vs veh, BRD1 / RFU, MARS / Fold change vs veh, MARS / RFU, ZNF655 / Fold change vs veh, ZNF655 / RFU, FAHD1 / Fold change vs veh, FAHD1 / RFU, BDP1 / Fold change vs veh, BDP1 / RFU, LRRCC1 / Fold change vs veh, LRRCC1 / RFU, ARID1A / Fold change vs veh, ARID1A / RFU, ZNF146 / Fold change vs veh, ZNF146 / RFU, ZNF330 / Fold change vs veh, ZNF330 / RFU, GPN3 / Fold change vs veh, GPN3 / RFU, C9orf123 / Fold change vs veh, C9orf123 / RFU, N4BP2L2 / Fold change vs veh, N4BP2L2 / RFU, ARFIP1 / Fold change vs veh, ARFIP1 / RFU, FAM179B / Fold change vs veh, FAM179B / RFU, BCL10 / Fold change vs veh, BCL10 / RFU, UHRF1BP1L / Fold change vs veh, UHRF1BP1L / RFU, BET1 / Fold change vs veh, BET1 / RFU, CNOT2 / Fold change vs veh, CNOT2 / RFU, ZNF268 / Fold change vs veh, ZNF268 / Fold change vs veh, ZNF507 / RFU, DGCR2 / Fold change vs veh, DGCR2 / RFU, WDSUB1 / Fold change vs veh, WDSUB1 / Fold change vs veh, HSP90B1 /// MIR3652 / RFU, ADSS / Fold change vs veh, ADSS / RFU, GK / Fold change vs veh, GK / RFU, ZNF148 / Fold change vs veh, ZNF148 / RFU, TAF9 / Fold change vs veh, TAF9 / RFU, SLC1A5 / Fold change vs veh, SLC1A5 / RFU, SLMO2 / Fold change vs veh, SLMO2 / RFU, ABCC4 / Fold change vs veh, ABCC4 / RFU, LOC101060439 /// RAP1B / Fold change vs veh, LOC101060439 /// RAP1B / RFU, RFX7 / Fold change vs veh, RFX7 / RFU, GTPBP10 / Fold change vs veh, GTPBP10 / RFU, CNEP1R1 / Fold change vs veh, CNEP1R1 / RFU, BIVM-ERCC5 /// ERCC5 / Fold change vs veh, BIVM-ERCC5 /// ERCC5 / RFU, ILF3 / Fold change vs veh, ILF3 / RFU 11762660_at / Fold change /veh 11762660_at / RFU VCAN (11757783_s_at) / Fold change /veh VCAN (11757783_s_at) / RFU DDX43 (11728927_at) / Fold change /veh DDX43 (11728927_at) / RFU KRT8 (11758188_x_at) / Fold change /veh KRT8 (11758188_x_at) / RFU NKD1 (11759106_at) / Fold change /veh NKD1 (11759106_at) / RFU SRD5A1 (11742802_a_at) / Fold change /veh SRD5A1 (11742802_a_at) / RFU TPSAB1 /// TPSB2 (11721975_s_at) / Fold change /veh TPSAB1 /// TPSB2 (11721975_s_at) / RFU GSTM3 (11746129_a_at) / Fold change /veh GSTM3 (11746129_a_at) / RFU IL23R (11737362_x_at) / Fold change /veh IL23R (11737362_x_at) / RFU TMEM51 (11727254_a_at) / Fold change /veh TMEM51 (11727254_a_at) / RFU PIWIL2 (11732686_x_at) / Fold change /veh PIWIL2 (11732686_x_at) / RFU ORM1 (11744905_x_at) / Fold change /veh ORM1 (11744905_x_at) / RFU CCDC152 (11743942_at) / Fold change /veh CCDC152 (11743942_at) / RFU ECM1 (11717891_a_at) / Fold change /veh ECM1 (11717891_a_at) / RFU IL23R (11748794_a_at) / Fold change /veh IL23R (11748794_a_at) / RFU TNFAIP8L3 (11732012_x_at) / Fold change /veh TNFAIP8L3 (11732012_x_at) / RFU MBOAT4 (11741988_at) / Fold change /veh MBOAT4 (11741988_at) / RFU 11764193_at / Fold change /veh 11764193_at / RFU TMEM53 (11763286_at) / Fold change /veh TMEM53 (11763286_at) / RFU MAGEB2 (11727129_at) / Fold change /veh MAGEB2 (11727129_at) / RFU TMEM200A (11744735_a_at) / Fold change /veh TMEM200A (11744735_a_at) / RFU CCDC152 (11751479_a_at) / Fold change /veh CCDC152 (11751479_a_at) / RFU FAM211A (11726209_a_at) / Fold change /veh FAM211A (11726209_a_at) / RFU RGS16 (11746705_a_at) / Fold change /veh RGS16 (11746705_a_at) / RFU VCAN (11755009_s_at) / Fold change /veh VCAN (11755009_s_at) / RFU RHOB (11743442_s_at) / Fold change /veh RHOB (11743442_s_at) / RFU RGS16 (11720943_a_at) / Fold change /veh RGS16 (11720943_a_at) / RFU RGS16 (11720944_at) / Fold change /veh RGS16 (11720944_at) / RFU, VPS4B / Fold change vs veh, VPS4B / RFU, CREB1 / Fold change vs veh, CREB1 / RFU, DNAJC13 / Fold change vs veh, DNAJC13 / RFU, GNAQ / Fold change vs veh, GNAQ / RFU, CDK5R1 / Fold change vs veh, CDK5R1 / RFU, ZRANB3 / Fold change vs veh, ZRANB3 / RFU, CUL4A / Fold change vs veh, CUL4A / RFU, CCNY / Fold change vs veh, CCNY / RFU, UFL1 / Fold change vs veh, UFL1 / RFU, COG3 / Fold change vs veh, COG3 / RFU, DIAPH2 / Fold change vs veh, DIAPH2 / RFU, SKA2 / Fold change vs veh, SKA2 / RFU, AFF3 / Fold change vs veh, AFF3 / RFU, LMF1 / Fold change vs veh, LMF1 / RFU, IPO11 / Fold change vs veh, IPO11 / RFU, DFFB / Fold change vs veh, DFFB / RFU, FOXP1 / Fold change vs veh, FOXP1 / RFU, CARD8 / Fold change vs veh, CARD8 / RFU, STRN3 / Fold change vs veh, STRN3 / RFU, ADK / Fold change vs veh, ADK / RFU, RASSF2 / Fold change vs veh, RASSF2 / RFU, WIPF1 / Fold change vs veh, WIPF1 / RFU, LARP1B / Fold change vs veh, LARP1B / RFU, RASA1 / Fold change vs veh, RASA1 / RFU, RB1 / Fold change vs veh, RB1 / RFU, PPFIA1 / Fold change vs veh, PPFIA1 / RFU, MAT2A / Fold change vs veh, MAT2A / RFU, CCT5 / Fold change vs veh, CCT5 / RFU, WDR92 / Fold change vs veh, WDR92 / RFU, CUX1 / Fold change vs veh, CUX1 / RFU, TTC7A / Fold change vs veh, TTC7A / RFU, TMEM135 / Fold change vs veh, TMEM135 / RFU, DEPTOR / Fold change vs veh, DEPTOR / RFU, CPM / Fold change vs veh, CPM / RFU, DNAJB6 / Fold change vs veh, DNAJB6 / RFU, CACNA2D3 / Fold change vs veh, CACNA2D3 / RFU, DTX4 / Fold change vs veh, DTX4 / RFU, TFCP2 / Fold change vs veh, TFCP2 / RFU, GMCL1 /// GMCL1P1 / Fold change vs veh, GMCL1 /// GMCL1P1 / RFU, AEBP2 / Fold change vs veh, AEBP2 / RFU, SNHG1 /// SNORD22 /// SNORD25 /// SNORD26 /// SNORD27 /// SNORD28 /// SNORD29 /// SNORD31 / Fold change vs veh, SNHG1 /// SNORD22 /// SNORD25 /// SNORD26 /// SNORD27 /// SNORD28 /// SNORD29 /// SNORD31 / Fold change (Aza/veh), C12orf56 (ProbeSet 11735607_a_at) / Fold change (ACY-1035/veh), C12orf56 (ProbeSet 11735607_a_at) / Fold change (Aza/veh), FGFR1OP (ProbeSet 11751329_s_at) / Fold change (ACY-1035/veh), FGFR1OP (ProbeSet 11751329_s_at) / Fold change (Aza/veh), VPS36 (ProbeSet 11739960_a_at) / Fold change (ACY-1035/veh), VPS36 (ProbeSet 11739960_a_at) / RFU SYPL1 (11715823_x_at) / Fold change /veh SYPL1 (11715823_x_at) / RFU IGFBP7 (11715501_s_at) / Fold change /veh IGFBP7 (11715501_s_at) / RFU REEP3 (11722064_at) / Fold change /veh REEP3 (11722064_at) / RFU IGLL1 (11728026_x_at) / Fold change /veh IGLL1 (11728026_x_at): dose or concentration left out as unconfirmed
Conditions: MV-4-11 cells, 48 hours

Nc1ccc(-c2cccs2)cc1NC(=O)c1ccc2c(c1)cc(C1CC1)n2CCN1CCOCC1 [ACY-1035]
Fold change /veh TMCC2 (11721928_a_at): 1.04
